# Test results reported in the OligoGym collection.
# “And” between values parts separate entries of the source, which are not always exact repeats. Identical values can stand only once. After the bases stand the sugars from the 5' end (letter, count) and the backbone: PS all phosphorothioate, else s phosphorothioate and o phosphodiester by linkage. Methylation of C is not given here. l = locked nucleic acid (LNA); d = 2'-deoxy (DNA)
# Legend:
# HTRA1 = settings: ASO, U251, 5 µM
# MYH7 = settings: ASO, CC-2580, 5 µM
# ANGPTL2 = settings: ASO
Sequence,target mRNA inhibition (MYH7),other results
"AAGTACTTTAATAGCTCA (sugars l4 d11 l3, PS)",–,target mRNA inhibition (HTRA1): 72%
"AATGTGTAAGAAGTAC (sugars l4 d8 l4, PS)",–,target mRNA inhibition (HTRA1): 83%
"ACGCATTGTATCGACT (sugars l3 d10 l3, PS)",–,target mRNA inhibition (HTRA1): 95%
"ACTCAGTTAAAGGAGGAG (sugars l2 d12 l4, PS)",–,target mRNA inhibition (HTRA1): 44%
"ACTCAGTTAAAGGAGGAGA (sugars l4 d13 l2, PS)",–,target mRNA inhibition (HTRA1): 33%
"CAGCTTGGCGATGATCT (sugars l1 d2 l1 d11 l2, PS)",27% and 2%,–
"CAGCTTGGCGATGATCT (sugars l2 d9 l1 d3 l2, PS)",60% and 37%,–
"CAGCTTGGCGATGATCT (sugars l3 d2 l1 d9 l2, PS)",75% and 59%,–
"CAGCTTGGCGATGATCT (sugars ldddddddddlldldll, PS)",47% and 30%,–
"CAGCTTGGCGATGATCT (sugars lddlddddddddldlll, PS)",48% and 26%,–
"CAGCTTGGCGATGATCT (sugars lddldddddddlddlll, PS)",3% and -1%,–
"CAGCTTGGCGATGATCT (sugars lddldddddddllddll, PS)",-2% and -12%,–
"CAGCTTGGCGATGATCT (sugars lddlddddddlddllll, PS)",29% and 23%,–
"CAGCTTGGCGATGATCT (sugars lddlddddddldlddll, PS)",11% and 15%,–
"CAGCTTGGCGATGATCT (sugars lddlddddddllddlll, PS)",16% and 14%,–
"CAGCTTGGCGATGATCT (sugars lddlddddddlldldll, PS)",18% and 5%,–
"CAGCTTGGCGATGATCT (sugars lddlddddlddddddll, PS)",34% and 17%,–
"CAGCTTGGCGATGATCT (sugars lddlddddlldddddll, PS)",0% and -24%,–
"CAGCTTGGCGATGATCT (sugars lddldldddddldddll, PS)",22% and 7%,–

Sequence,target mRNA inhibition (MYH7),other results
"CAGCTTGGCGATGATCT (sugars lddldldddddldldll, PS)",-1% and -24%,–
"CAGCTTGGCGATGATCT (sugars lddlldddddddlldll, PS)",38% and 22%,–
"CAGCTTGGCGATGATCT (sugars lddlldddddlldldll, PS)",22% and 14%,–
"CAGCTTGGCGATGATCT (sugars lddlldddlldddddll, PS)",36% and 19%,–
"CAGCTTGGCGATGATCT (sugars lddllddlddddddlll, PS)",15% and -9%,–
"CAGCTTGGCGATGATCT (sugars ldldldddddddlddll, PS)",21% and 3%,–
"CAGCTTGGCGATGATCT (sugars ldldldldlddddddll, PS)",-17% and -15%,–
"CAGCTTGGCGATGATCT (sugars ldldllddddddlddll, PS)",31% and 17%,–
"CAGCTTGGCGATGATCT (sugars ldlldddddddldddll, PS)",38% and 20%,–
"CAGCTTGGCGATGATCT (sugars llddddddddlddldll, PS)",37% and 33%,–
"CAGCTTGGCGATGATCT (sugars lldddddddllddldll, PS)",17% and 3%,–
"CAGCTTGGCGATGATCT (sugars lldddddldddldldll, PS)",20% and 15%,–
"CAGCTTGGCGATGATCT (sugars lldlddddddlldddll, PS)",24% and 13%,–
"CAGCTTGGCGATGATCT (sugars lldllddddddldddll, PS)",45% and 31%,–
"CAGCTTGGCGATGATCT (sugars lllddlddddddlddll, PS)",25% and 0%,–
"CTTGGCAATGATCTCATCC (sugars l2 d1 l1 d11 l4, PS)",81% and 60%,–
"CTTGGCAATGATCTCATCC (sugars l2 d10 l2 d2 l3, PS)",74% and 49%,–
"CTTGGCAATGATCTCATCC (sugars l3 d13 l3, PS)",71% and 46%,–
"CTTGGCAATGATCTCATCC (sugars lddddddddlddddlldll, PS)",45% and 31%,–

Sequence,target mRNA inhibition (MYH7),other results
"CTTGGCAATGATCTCATCC (sugars ldddddddlddldldldll, PS)",37% and 12%,–
"CTTGGCAATGATCTCATCC (sugars ldddddddldlldldldll, PS)",-7% and -17%,–
"CTTGGCAATGATCTCATCC (sugars lddddddlddddlddddll, PS)",41% and 19%,–
"CTTGGCAATGATCTCATCC (sugars lddddddlddlddldldll, PS)",6% and -16%,–
"CTTGGCAATGATCTCATCC (sugars lddddddlddldlddddll, PS)",45% and 29%,–
"CTTGGCAATGATCTCATCC (sugars lddddddlddlldldldll, PS)",18% and -7%,–
"CTTGGCAATGATCTCATCC (sugars ldddddlddlddlddldll, PS)",-6% and -21%,–
"CTTGGCAATGATCTCATCC (sugars ldddddllddddlddldll, PS)",24% and 0%,–
"CTTGGCAATGATCTCATCC (sugars ldddddllddddldlddll, PS)",67% and 52%,–
"CTTGGCAATGATCTCATCC (sugars ldddddllldddddlddll, PS)",29% and 20%,–
"CTTGGCAATGATCTCATCC (sugars ldddldddddddlddldll, PS)",22% and 3%,–
"CTTGGCAATGATCTCATCC (sugars lddldddddddldllddll, PS)",56% and 39%,–
"CTTGGCAATGATCTCATCC (sugars ldldlddddddlddlddll, PS)",-4% and -29%,–
"CTTGGCAATGATCTCATCC (sugars lldddddddlddddldlll, PS)",67% and 43%,–
"CTTGGCAATGATCTCATCC (sugars lldddddddlddlddldll, PS)",59% and 36%,–
"CTTGGCAATGATCTCATCC (sugars llddlddddddldldldll, PS)",-25% and -43%,–
"CTTGGCAATGATCTCATCC (sugars lldlddddddddlddldll, PS)",38% and 23%,–
"GATGATGCGGTTGTAGGT (sugars l1 d15 l2, PS)",–,target mRNA inhibition (ANGPTL2; 5 µM): 62.4%; target mRNA inhibition (ANGPTL2; 25 µM): 73%
